Consider 68 compounds from PubChem BioAssay AID493148 (Sanford-Burnham Center for Chemical Genomics, 2011).

As usually defined, the IC50 is the concentration at which inhibition is half-maximal.

The source made the active and inactive calls. The rule behind the calls is not given here.

This assay deals with Alkaline phosphatase, tissue-nonspecific isozyme (Homo sapiens) (UniProt P05186). The assay can be described thus: inhibition of tissue-nonspecific alkaline phosphatase – biochemical, selectivity assay for mouse IAP inhibitor project, SAR follow-up (AID 493148). To be noted: purified enzyme, CDP-Star luminescence, 30 min.
Chain of Alkaline phosphatase, tissue-nonspecific isozyme (Homo sapiens) (P05186 whole entry, looked up): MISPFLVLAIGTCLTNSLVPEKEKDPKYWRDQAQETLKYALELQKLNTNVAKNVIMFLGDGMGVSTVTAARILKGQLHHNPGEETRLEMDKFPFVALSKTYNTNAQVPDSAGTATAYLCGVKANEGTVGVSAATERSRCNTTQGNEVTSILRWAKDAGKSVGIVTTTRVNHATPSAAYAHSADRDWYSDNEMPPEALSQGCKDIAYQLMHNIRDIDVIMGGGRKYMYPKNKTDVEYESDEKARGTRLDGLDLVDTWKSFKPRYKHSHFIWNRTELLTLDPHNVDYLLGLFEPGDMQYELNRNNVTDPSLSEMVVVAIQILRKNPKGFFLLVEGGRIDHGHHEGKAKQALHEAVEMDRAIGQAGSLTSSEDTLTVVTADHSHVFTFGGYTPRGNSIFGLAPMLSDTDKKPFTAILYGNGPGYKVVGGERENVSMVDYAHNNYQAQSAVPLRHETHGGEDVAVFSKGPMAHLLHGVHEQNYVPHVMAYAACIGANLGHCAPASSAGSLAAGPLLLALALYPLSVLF

Turning to `CCn1cc(CN2CCC(C(=O)Nc3cccc(-c4cccc(F)c4)c3)CC2)cn1`, the IC50 is > 100 µM (inactive). On to `CCCn1ncc(CN2CCC(C(=O)Nc3cccc(-c4cccc(F)c4)c3)CC2)c1C`, for which the IC50 was > 100 µM (inactive). As for `Cc1c(CN2CCC(C(=O)Nc3cccc(-c4cccc(Cl)c4)c3)CC2)cnn1C`, the IC50 is > 100 µM (inactive).

With `COCc1ccc(CN2CCC(C(=O)Nc3cccc(-c4cccc(Cl)c4)c3)CC2)o1`, the IC50 was > 100 µM (inactive). As for `CCn1nc(C)c(CN2CCC(C(=O)Nc3cccc(-c4cccc(F)c4)c3)CC2)c1C`, the figure is > 100 µM (inactive).

As to `Cn1cc(CN2CCC(C(=O)Nc3cccc(-c4cccc(Cl)c4)c3)CC2)cn1`, the IC50 was > 100 µM (inactive).

Turning to `CCn1nc(C)c(CN2CCC(C(=O)Nc3cccc(-c4cccc(Cl)c4)c3)CC2)c1C`, the IC50 is > 100 µM (inactive).

As to `Cc1ccc(NC(=O)CCNS(=O)(=O)c2ccc3[nH]c(=O)oc3c2)cc1C`, the IC50 is > 100 µM (inactive). For the compound `CN(C)S(=O)(=O)c1cccc(NC(=S)NCCC(c2ccccc2)c2ccccc2)c1`, the IC50 was > 100 µM (inactive). Next, `S=C(NCCC(c1ccccc1)c1ccccc1)Nc1ccc(Cl)c(Cl)c1`: > 100 µM (inactive); `O=C(Nc1cccc(-c2cccc(F)c2)c1)C1CCN(Cc2ccc(CO)o2)CC1`: > 100 µM (inactive); `FC(F)(F)c1cccc(NC(=S)NCCC(c2ccccc2)c2ccccc2)c1`: > 100 µM (inactive). Next, `Cc1c(Cl)cccc1Nc1nc(-c2ccc(O)c(O)c2)cs1`: > 100 µM (inactive); `COc1ccc(Cl)cc1Nc1nc(-c2ccc(O)c(O)c2)cs1`: > 100 µM (inactive). Next, `CCn1ncc(CN2CCC(C(=O)Nc3cccc(-c4cccc(F)c4)c3)CC2)c1C`: > 100 µM (inactive). With `O=C(CN1C(=O)/C(=C\c2ccco2)SC1=S)Nc1ccccc1C(=O)O`, the IC50 was > 100 µM (inactive). On to `O=S(=O)(Nc1ncccn1)c1ccc(NC(=S)NCCC(c2ccccc2)c2ccccc2)cc1`, for which the IC50 is > 100 µM (inactive). As for `C=CCn1cc(CN2CCC(C(=O)Nc3cccc(-c4cccc(F)c4)c3)CC2)c(C)n1`, the figure is > 100 µM (inactive); as for `CN1CCC(=NNC(=O)c2cc(O)c(O)c(O)c2)CC1`, > 100 µM (inactive); as for `NS(=O)(=O)c1ccc(NC(=S)NCCC(c2ccccc2)c2ccccc2)cc1`, > 100 µM (inactive).

As for `CC1(c2ccccc2)CC(C)(C)N(C(=S)Nc2ccccc2)c2ccccc21` (stereo not drawn), the IC50 is > 100 µM (inactive).

Turning to `Cc1ccc(NC(=S)NCCC(c2ccccc2)c2ccccc2)cc1`, the IC50 was > 100 µM (inactive). Next, `CCn1cc(CN2CCC(C(=O)Nc3cccc(-c4cccc(OC)c4)c3)CC2)cn1`: > 100 µM (inactive); `CC(C)n1cc(CN2CCC(C(=O)Nc3cccc(-c4cccc(Cl)c4)c3)CC2)cn1`: > 100 µM (inactive); `COc1cccc(NC(=S)NCCC(c2ccccc2)c2ccccc2)c1`: > 100 µM (inactive).

As to `Cc1cc(=O)oc2cc(NC(=S)NCCC(c3ccccc3)c3ccccc3)ccc12`, the IC50 was > 100 µM (inactive). Next, `CCOC(=O)c1ccc(NC(=S)NCCC(c2ccccc2)c2ccccc2)cc1`: > 100 µM (inactive). As for `CCn1c(SCC(=O)c2ccc(O)c(O)c2)nnc1-c1ccccc1OC`, the figure is > 100 µM (inactive); as for `CC(C)N1CCC(=NNC(=O)c2cc(O)c(O)c(O)c2)CC1`, > 100 µM (inactive).

As to `CCN1CCN(S(=O)(=O)c2ccc3[nH]c(=O)oc3c2)CC1`, the IC50 was > 100 µM (inactive).

For `Cc1nn(C)c(Cl)c1CN1CCC(C(=O)Nc2cccc(-c3cccc(F)c3)c2)CC1`, the IC50 was > 100 µM (inactive). `CCc1ccccc1Nc1nc(-c2ccc(O)c(O)c2)cs1`: the IC50 is 11.4 µM. Next, `Cc1c(Cl)cccc1NC(=S)NCCC(c1ccccc1)c1ccccc1`: > 100 µM (inactive); `C=CCn1cc(CN2CCC(C(=O)Nc3cccc(-c4cccc(Cl)c4)c3)CC2)c(C)n1`: > 100 µM (inactive); `S=C(NCCC(c1ccccc1)c1ccccc1)Nc1ccc(Cl)cc1Cl`: > 100 µM (inactive). Turning to `S=C(NCCC(c1ccccc1)c1ccccc1)Nc1ccccc1`, the IC50 was > 100 µM (inactive).

In the case of `CC(C)n1cc(CN2CCC(C(=O)Nc3cccc(-c4cccc(F)c4)c3)CC2)cn1`, the IC50 was > 100 µM (inactive).

In the case of `Cn1cc(CN2CCC(C(=O)Nc3cccc(-c4cccc(F)c4)c3)CC2)cn1`, the IC50 was > 100 µM (inactive). As for `COc1ccc(Cl)cc1NC(=S)NCCC(c1ccccc1)c1ccccc1`, the figure is > 100 µM (inactive); as for `O=C(CN1C(=O)/C(=C/c2ccco2)SC1=S)Nc1cccc(C(=O)O)c1`, > 100 µM (inactive). As for `CCn1cc(CN2CCC(C(=O)Nc3cccc(-c4cccc(Cl)c4)c3)CC2)cn1`, the figure is > 100 µM (inactive); as for `Fc1ccccc1NC(=S)NCCC(c1ccccc1)c1ccccc1`, > 100 µM (inactive). As for `O=C(Nc1cccc(-c2cccc(Cl)c2)c1)C1CCN(C2CCC2)CC1`, the figure is > 100 µM (inactive).

As for `COc1cccc(-c2cccc(NC(=O)C3CCN(Cc4ccc(CO)o4)CC3)c2)c1`, the IC50 was > 100 µM (inactive). Turning to `Cc1cc(Cl)ccc1NC(=S)NCCC(c1ccccc1)c1ccccc1`, the IC50 is > 100 µM (inactive). Next, `Cc1nn(C(C)C)c(C)c1CN1CCC(C(=O)Nc2cccc(-c3cccc(F)c3)c2)CC1`: > 100 µM (inactive); `O=[N+]([O-])c1ccc(NC(=S)NCCC(c2ccccc2)c2ccccc2)cc1`: > 100 µM (inactive); `CCn1cc(CN2CCC(C(=O)Nc3cccc(-c4cccc(OC)c4)c3)CC2)c(C)n1`: > 100 µM (inactive).

Regarding `Oc1ccc(-c2csc(Nc3cccc4ccccc34)n2)cc1O`, the IC50 was 6.4 µM. Next, `COc1cc([N+](=O)[O-])ccc1NC(=S)NCCC(c1ccccc1)c1ccccc1`: > 100 µM (inactive); `Fc1ccc(NC(=S)NCCC(c2ccccc2)c2ccccc2)cc1Cl`: > 100 µM (inactive); `Cc1cccc(NC(=S)NCCC(c2ccccc2)c2ccccc2)c1C`: > 100 µM (inactive). As for `Cc1ccc(NC(=S)NCCC(c2ccccc2)c2ccccc2)cc1C`, the figure is > 100 µM (inactive).

`Cc1cc(C)cc(NC(=S)NCCC(c2ccccc2)c2ccccc2)c1`: the IC50 is > 100 µM (inactive). Next, `COC(=O)c1cc(NC(=S)NCCC(c2ccccc2)c2ccccc2)cc(C(=O)OC)c1`: > 100 µM (inactive); `COc1cc(NC(=S)NCCC(c2ccccc2)c2ccccc2)cc(OC)c1`: > 100 µM (inactive); `COc1cccc(-c2cccc(NC(=O)C3CCN(Cc4ccc(C)o4)CC3)c2)c1`: > 100 µM (inactive). Next, `COc1ccc(NC(=S)NCCC(c2ccccc2)c2ccccc2)cc1`: > 100 µM (inactive); `O=C(Nc1cccc(-c2cccc(Cl)c2)c1)C1CCN(Cc2ccc(CO)o2)CC1`: > 100 µM (inactive); `S=C(NCCC(c1ccccc1)c1ccccc1)Nc1cccc(Cl)c1`: > 100 µM (inactive). As to `COc1ccc(C(=O)CSc2n[nH]c(-c3ccccc3)n2)cc1OC`, the IC50 was 34.4 µM. As for `S=C(NCCC(c1ccccc1)c1ccccc1)Nc1ccc(Nc2ccccc2)cc1`, the figure is > 100 µM (inactive). Next, `CC(C)c1ccccc1NC(=S)NCCC(c1ccccc1)c1ccccc1`: > 100 µM (inactive). Next, `Cc1ccc(CN2CCC(C(=O)Nc3cccc(-c4cccc(F)c4)c3)CC2)o1`: > 100 µM (inactive); `O=C(CN1C(=O)/C(=C/c2ccco2)SC1=S)Nc1ccc(C(=O)O)cc1`: > 100 µM (inactive); `S=C(NCCC(c1ccccc1)c1ccccc1)Nc1ccc(Cl)cc1`: > 100 µM (inactive). Consider `Cc1cc(NC(=O)CCNS(=O)(=O)c2ccc3[nH]c(=O)oc3c2)ccc1Br`, for which the IC50 is > 100 µM (inactive). Next, `Cc1ccc(C)c(NC(=S)NCCC(c2ccccc2)c2ccccc2)c1`: > 100 µM (inactive).
